Measured values reported in patent US20250262170A1, “COMBINATIONS OF BETA 2-ADRENERGIC RECEPTOR AGONISTS AND BETA 3-ADRENERGIC RECEPTOR AGONISTS, AND MEDICAL USES THEREOF” (ATROGI AB, priority 2022, published 2025).

Tests used:
β2-adrenergic receptor = molecular target: T1, β2-adrenergic receptor (Rattus norvegicus, UniProt P10608); experiment: Glucose uptake in L6-myotubes in the presence of the selective β2-adrenergic receptor antagonist ICI-118551; type: cell-based; details: 3H-2-deoxyglucose, increasing ICI-118551
T1 construct: endogenous in cells; host or cells: L6 myotubes differentiated from L6 myoblasts
Method: L6-myoblasts were grown in Dulbecco's Modified Eagle's Medium (DMEM) containing 1 g/L glucose supplemented with 10% fetal bovine serum (FBS), 2 mM L-glutamine, 50 U/mL penicillin, […] streptomycin and 10 mM HEPES. Cells were plated at 1×10^5 cells per mL in 24-well plates. After reaching 90% confluence the cells were grown in medium containing 2% FBS for 7 days where upon cells differentiated into myotubes.
The differentiated L6-myotubes were serum-starved overnight in medium containing 0.5% fatty-acid free BSA and stimulated with Compounds A and B at a final concentration of 1×10^−5 M in the presence of the selective β2-adrenergic receptor antagonist ICI-118551. After 1 h 40 min the cells were washed with warm, glucose free medium twice and another portion of agonist was added to the glucose free medium. After another 20 min of incubation the cells were exposed to 50 nM ^3H-2-deoxyglucose for 10 min before washed in ice cold glucose free medium three times and lysed in 400 μl/well 0.2 M NaOH for 1 h at 60° C. The cell lysate was mixed with 4 ml scintillation buffer (Emulsifier Safe, Perkin Elmer) and the radioactivity was detected in a […] (Tri-Carb 4810TR, Perkin Elmer).

[1] = molecular target: T2, human β3-adrenergic receptor (Homo sapiens, UniProt P13945); experiment: cAMP levels in CHO-K1 cells expressing the human β3-adrenergic receptor; type: cell-based; details: CHO-K1, 0.25 h, 15 min, read-out: Activity (intracellular cAMP compared to that of isoproterenol)
T2 construct: expressed in transfected cells
Method: CHO-K1 cells stably expressing the human β3-adrenergic receptors were serum-starved overnight and stimulated with an agonist, final concentration 1×10^−5 M, for 15 min in stimulation buffer (HBSS supplemented with 1% BSA, 5 mM HEPES and 1 mM IBMX, pH 7.4) The medium was then aspirated and to end the reaction, 100 μL of 95% EtOH was added to each well of the 24-well plate and cells were kept at −20° C. overnight. The next day EtOH was allowed to evaporate and 250 μL of lysis buffer (1% BSA, 5 mM HEPES and 0.3% Tween-20, pH 7.4) was added to each well. The plate was kept at −80° C. for 30 min and thawed in room temperature. Intracellular cAMP levels were detected using an alpha screen cAMP kit (6760635D from Perkin Elmer). The activity for each compound is compared to that of isoproterenol.

T2 sequence (P13945 whole entry): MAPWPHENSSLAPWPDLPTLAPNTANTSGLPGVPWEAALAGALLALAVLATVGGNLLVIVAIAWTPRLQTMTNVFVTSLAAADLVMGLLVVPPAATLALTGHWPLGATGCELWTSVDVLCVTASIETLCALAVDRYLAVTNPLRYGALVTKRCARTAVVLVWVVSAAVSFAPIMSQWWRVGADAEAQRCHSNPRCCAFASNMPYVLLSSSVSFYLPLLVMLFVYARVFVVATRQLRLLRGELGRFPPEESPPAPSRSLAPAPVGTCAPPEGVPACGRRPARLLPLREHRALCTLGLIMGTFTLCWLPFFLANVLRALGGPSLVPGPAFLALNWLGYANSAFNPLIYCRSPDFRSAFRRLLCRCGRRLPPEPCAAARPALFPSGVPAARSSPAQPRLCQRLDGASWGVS
T1 sequence (P10608 whole entry): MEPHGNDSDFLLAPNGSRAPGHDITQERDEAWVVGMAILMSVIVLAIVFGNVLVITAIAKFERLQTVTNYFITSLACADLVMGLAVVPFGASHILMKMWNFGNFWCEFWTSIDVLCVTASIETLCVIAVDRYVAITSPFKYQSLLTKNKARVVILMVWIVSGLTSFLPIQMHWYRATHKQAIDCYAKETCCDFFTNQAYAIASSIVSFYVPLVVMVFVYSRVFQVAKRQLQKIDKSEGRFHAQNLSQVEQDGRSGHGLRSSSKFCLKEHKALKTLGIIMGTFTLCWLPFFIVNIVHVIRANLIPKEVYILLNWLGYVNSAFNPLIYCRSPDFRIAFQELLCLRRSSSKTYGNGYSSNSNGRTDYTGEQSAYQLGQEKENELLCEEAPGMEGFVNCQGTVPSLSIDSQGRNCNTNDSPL

Compound	glucose uptake promoted by the agonist in the presence of ICI-118551 (β2-adrenergic receptor)	Emax at 10 µM [1]
CC(C)(C)NC[C@H](O)c1cccc(F)c1 [Compound A]	inhibited in a dose-dependent manner	–
CC(C)(C)NCC(O)c1cc(Cl)c(N)c(Cl)c1 (stereo not shown) [clenbuterol, reference compound]	inhibited in a dose-dependent manner	–
CO[C@H]1CC[C@H](C[C@@H]2CC[C@H]([C@H](O)c3cccc(F)c3F)N2)CC1 [Compound 6, (R)-(2,3-difluorophenyl)-((2R,5S)-5-(((trans)-4-methoxycyclohexyl)methyl)-pyrrolidin-2-yl)methanol]	–	> 75%
CCCCS(=O)(=O)N[C@H]1CC[C@H](CC(C)(C)NC[C@H](O)c2cncc(F)c2)CC1 [Compound 19, N-((trans)-4-(2-(((R)-2-(5-fluoropyridin-3-yl)-2-hydroxyethyl)amino)-2-methylpropyl)cyclohexyl)-butane-1-sulfonamide]	–	> 75%
